Results as given in article PMC4645461 (Peptides, 2015).
Entries after “also recorded” stand apart in the source; their conditions may differ.

Experiments:
[1] = cited from earlier work
human GLP-1 receptor = conditions: compared to native peptides; ref [22],[23],[32]; cited from earlier work
[2] = set-up: method as in earlier work; conditions: native oxyntomodulin and longer lasting dual analogues; rodents ref [6],[9],[10],[23],[26],[31]; humans ref [36],[37]; cited from earlier work
Text: Additionally, methods of peptide administration differ: some studies infused peptides while others administer ...

[3] = rodents and humans; ref [7],[19],[34],[36],[37]; cited from earlier work
rat glucagon receptor = biological target: T1, rat glucagon receptor (Rattus norvegicus, UniProt P30082); assay: cAMP accumulation, CHO-K1 cells over-expressing the rat glucagon receptor; format: cell-based; conditions: rat glucagon receptor vs rat GLP-1 receptor
T1 construct: host or cells: CHO-K1
Procedure: (§1) For cAMP studies, cells were seeded at a density of 150000 cells/ml in a 48 well plate (Nunc, VWR International Inc., Chicago, USA) and incubated for 24 h. Cells were serum starved for 1 h and then incubated for 30 mins at room temperature with a range of peptide concentrations diluted in serum free DMEM (Sigma–Aldrich, Dorset, UK) in the presence of 1 mM IBMX (3-isobutyl-1-methylxanthine, Sigma–Aldrich). […] EC50’s were calculated using Prism v5 (GraphPad Software Inc., San Diego, CA, USA). Concentrations were applied in duplicate or triplicate per experiment and each experiment repeated a minimum of 3 times.
(§2) All food and bodyweight data are presented as mean ± SEM. […] Differences in 0–7 days cumulative food intake and bodyweight data were analysed using one way ANOVA and post hoc tests with Dunnett’s or Bonferroni corrections for multiple comparisons (Prism v5, GraphPad Software Inc. San Diego, CA, USA). cAMP EC50’s were calculated using a sigmoidal dose response curve and non-linear regression (Prism v5). […] In all cases P < 0.05 was considered statistically significant.

human glucagon receptor = conditions: compared to native peptides; ref [22],[23],[32]; cited from earlier work
rat GLP-1 receptor = biological target: T2, rat GLP-1 receptor (Rattus norvegicus, UniProt P32301); assay: cAMP accumulation, CHL cells over-expressing the rat GLP-1 receptor; format: cell-based; conditions: analogue average EC50/average GLP-1 EC50; below 1 enhanced efficacy, above 1 decreased efficacy vs native peptide
T2 construct: host or cells: CHL (Chinese hamster lung)
T2 sequence (P32301 22-463): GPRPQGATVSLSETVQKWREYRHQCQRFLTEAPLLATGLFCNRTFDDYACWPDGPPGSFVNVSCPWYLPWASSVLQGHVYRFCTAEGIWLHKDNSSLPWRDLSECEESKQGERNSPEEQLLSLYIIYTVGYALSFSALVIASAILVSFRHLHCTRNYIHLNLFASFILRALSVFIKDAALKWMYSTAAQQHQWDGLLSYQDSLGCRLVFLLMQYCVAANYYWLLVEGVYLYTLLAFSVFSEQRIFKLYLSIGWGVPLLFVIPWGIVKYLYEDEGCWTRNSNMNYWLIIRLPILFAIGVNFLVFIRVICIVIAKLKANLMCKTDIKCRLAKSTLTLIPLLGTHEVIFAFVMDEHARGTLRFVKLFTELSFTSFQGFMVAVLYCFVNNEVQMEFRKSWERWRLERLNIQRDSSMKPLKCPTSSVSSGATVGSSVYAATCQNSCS
Procedure: as §1, §2

T1 sequence (P30082 27-485): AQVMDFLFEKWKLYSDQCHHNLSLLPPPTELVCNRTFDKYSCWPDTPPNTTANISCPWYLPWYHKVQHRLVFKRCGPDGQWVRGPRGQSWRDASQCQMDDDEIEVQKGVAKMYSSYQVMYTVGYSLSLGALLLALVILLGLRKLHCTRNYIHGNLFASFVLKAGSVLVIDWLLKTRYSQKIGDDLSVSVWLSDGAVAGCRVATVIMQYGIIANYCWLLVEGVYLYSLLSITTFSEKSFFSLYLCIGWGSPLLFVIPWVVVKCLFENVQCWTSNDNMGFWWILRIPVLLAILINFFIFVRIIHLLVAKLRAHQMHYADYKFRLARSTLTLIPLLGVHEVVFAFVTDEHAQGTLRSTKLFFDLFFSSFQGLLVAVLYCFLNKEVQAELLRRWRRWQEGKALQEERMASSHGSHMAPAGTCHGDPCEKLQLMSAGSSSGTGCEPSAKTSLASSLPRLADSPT

## Exendin-4
[1]; ref [33],[38]
  weight loss in standard chow fed animals: weight loss

## oxyntomodulin [OXM]
Human GLP-1 receptor
  activation of human GLP-1 receptor: reduced efficacy compared to the native peptides
[2]
  food intake after repeated peripheral administration: reduction in food intake
[3]
  energy expenditure: increase energy expenditure
Rat glucagon receptor
  preference between rat glucagon and GLP-1 receptors: greater efficacy at the glucagon receptor than the GLP1 receptor; also recorded: favoured glucagon receptor activity
Human glucagon receptor
  activation of human glucagon receptor: reduced efficacy compared to the native peptides
[1]; peripheral administration, rodents ref [1],[5],[6],[25], humans ref [4],[36],[37]
  weight loss: causes weight loss

## GLP-1(7-36NH2)
Rat GLP-1 receptor
  EC50 ratio to native peptide, Rat GLP-1r: 1.0 arbitrary units
